In patent publication US9221804B2, “Secondary alcohol quinolinyl modulators of RORγt” (Janssen Pharmaceutica NV, priority 2013, dated 2015):

Legend:
human RORγt LBD = biological target: T1, human RORγt LBD (Homo sapiens, UniProt P51449); assay: RORγt (LBD) Reporter Assay (GAL4 luciferase, HEK293T); type: cell-based; details: HEK293T cells; for IC50: 24 hours with compound
T1 construct: expressed in transfected cells; host or cells: HEK293T
T1 sequence (P51449 258-518): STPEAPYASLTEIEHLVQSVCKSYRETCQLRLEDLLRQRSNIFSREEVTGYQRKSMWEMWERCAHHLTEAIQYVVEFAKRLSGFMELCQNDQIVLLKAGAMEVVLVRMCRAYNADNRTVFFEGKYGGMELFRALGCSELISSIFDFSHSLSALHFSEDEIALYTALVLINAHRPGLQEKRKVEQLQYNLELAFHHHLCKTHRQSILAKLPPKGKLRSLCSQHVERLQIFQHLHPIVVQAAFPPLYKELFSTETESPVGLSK
Experimental: Compounds were assessed for RORgt functional modulation using either the RORgt ligand binding domain (LBD) reporter assay, or the RORgt full-length (FL) reporter assay.
A reporter assay was used to test functional activity of RORγt modulatory compounds on transcriptional activation driven by the RORγt LBD. Cells used in the assay were co-transfected with two constructs. The first construct, pBIND-RORγt LBD, contained the wild type human RORγt LBD fused to the DNA binding domain of the GAL4 protein. The second construct, pGL4.31 (Promega Cat no. C935A), contained multiple GAL4 responsive DNA elements upstream of firefly luciferase. […] The mutant construct was called pBIND-RORγt-AF2.
The pBIND vector contains the GAL4 DNA Binding Domain (GAL4 DBD) and the renilla luciferase gene under control of the SV40 promoter. Renilla luciferase expression serves as a control for transfection efficiency and cell viability.
The reporter assay was performed by transiently transfecting HEK293T cells with 5 μg of pBIND-RORγt LBD or pBIND-RORγt LBD-AF2 and 5 μg pGL4.31 (Promega Cat no. C935A) using Fugene 6 (Invitrogen Cat no. E2691) at a 1:6 ratio of DNA: Fugene 6 in a T-75 flask in which cells were at least 80% confluent. Twenty four hours after bulk transfection, cells were plated into 96-well plates at 50,000 cells/well in phenol-red free DMEM containing 5% Lipid Reduced FCS and Pen/Strep. Six hours after plating, cells were treated with compounds for 24 hours. Media was removed and cells were lysed with 50 μL 1× Glo Lysis Buffer (Promega). Dual Glo Luciferase Reagent (50 μL/well) was then added and firefly luciferase luminescence was read on an Envision after a ten minute incubation. Finally, Stop and Glo reagent (50 μL/well) was added and renilla luciferase luminescence was read on an Envision after a ten minute incubation. To calculate the effect of compounds on RORγt activity, the ratio of firefly to renilla luciferase was determined and plotted against compound concentration. Agonist compounds increase RORγt-driven luciferase expression, and antagonist or inverse agonist compounds decrease luciferase expression.

[1] = biological target: T2, human RORγt ligand binding domain (RORγt LBD) (Homo sapiens, UniProt P51449); assay: RORγt ThermoFluor assay (thermal shift binding affinity); details: 0.065 mg/mL RORγt, pH 7.0; estimated from concentration response curves
T2 construct: His-tag (N); TurboTEV protease cleavage site (ENLYFQG) (N); made in house; host or cells: E. coli (pHIS1, modified pET vector)
T2 sequence (P51449 with tags, fused parts or gaps): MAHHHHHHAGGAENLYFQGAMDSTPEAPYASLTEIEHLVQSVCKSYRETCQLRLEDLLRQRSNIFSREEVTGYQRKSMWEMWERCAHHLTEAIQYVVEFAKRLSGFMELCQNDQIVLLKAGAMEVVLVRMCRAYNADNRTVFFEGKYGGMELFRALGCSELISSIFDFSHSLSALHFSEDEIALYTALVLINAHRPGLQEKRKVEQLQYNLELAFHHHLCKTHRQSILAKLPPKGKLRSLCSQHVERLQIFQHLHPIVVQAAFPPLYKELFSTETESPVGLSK
Experimental: This approach is applicable to a wide variety of systems, and rigorous in theoretical interpretation through quantitation of equilibrium binding constants (KD).
The shift in the melting point described as a ΔTm is proportional to the concentration and affinity of the ligand. The compound potency may be compared as a rank order of either ΔTm values at a single compound concentration or in terms of KD values, estimated from concentration response curves.
ThermoFluor® experiments were carried out using instruments owned by Janssen Research and Discovery, L.L.C. through its acquisition of 3-Dimensional Pharmaceuticals, Inc. 1,8-ANS (Invitrogen) was used as a fluorescent dye. […]
Fluorescence was measured by continuous illumination with UV light (Hamamatsu LC6) supplied via fiber optic and filtered through a band-pass filter (380-400 nm; >6 OD cutoff). Fluorescence emission of the entire 384-well plate was detected by measuring light intensity using a CCD camera (Sensys, Roper Scientific) filtered to detect 500±25 nm, resulting in simultaneous and independent readings of all 384 wells. Images were collected at each temperature, and the sum of the pixel intensity in a given area of the assay plate was recorded versus temperature. […]

[2] = test system: IL-17 production by CD4 T cells; assay: Human Th17 Assay; type: cell-based; details: human CD4+ T cells under Th17 differentiation, 3 days, IL-17 in supernatant
Source text: The human Th17 assay tests the effect of RORγt modulatory compounds on IL-17 production by CD4 T cells under conditions which favor Th17 differentiation.
Total CD4^+ T cells were isolated from the peripheral blood mononuclear cells (PBMC) of healthy donors using a CD4^+ T cell isolation kit II, following the manufacturer's instructions (Miltenyi Biotec). Cells were resuspended in a medium of RPMI-1640 supplemented with 10% fetal bovine serum, penicillin, streptomycin, glutamate, and β-mercaptoethanol and were added to 96-well plates at 1.5×10^5 per 100 μL per well. 50 μL of compound at titrated concentrations in DMSO were added into each well at final DMSO concentration at 0.2%. Cells were incubated for 1 hour, then 50 μL of Th17 cell differentiation medium was added to each well. […] Supernatants were collected and the accumulated IL-17 in culture was measured by using MULTI-SPOT® Cytokine Plate following manufacture's instruction (Meso Scale Discovery). The plate was read using Sector Imager 6000, and IL-17 concentration was extrapolated from the standard curve. The IC50s were determined by GraphPad.

Row | SMILES | IC50 (human RORγt LBD) [nM] | Kd [1] [nM] | IC50 [2] [nM] | inhibition at 6 µM (human RORγt LBD; HEK-293T, 6 μM compound) [%]
1 | COc1nc2ccc(C(O)c3cnc(C)n3C)cc2c(Cl)c1Cc1ccc(F)cc1 (single isomer, unassigned) [Example 8c] | > 6000 | 95 |  | 
2 | COc1nc2ccc(C(O)c3cnnn3C)cc2c(Cl)c1Cc1ccc(-n2cccn2)cc1 (single isomer, unassigned) [Example 5c, (3-(4-(1H-Pyrazol-1-yl)benzyl)-4-chloro-2-methoxyquinolin-6-yl)(1-methyl-1H-1,2,3-triazol-5-yl)methanol] |  |  | 610 | 
3 | COc1nc2ccc(C(O)c3cnc(C)n3C)cc2c(Cl)c1Cc1ccc(F)cc1 (centres unmarked) [Example 8a] | > 6000 |  |  | 
4 | COc1nc2ccc(C(O)c3cnnn3C)cc2c(Cl)c1Cc1ccc(-n2cccn2)cc1 (single isomer, unassigned) [Example 5b, (3-(4-(1H-Pyrazol-1-yl)benzyl)-4-chloro-2-methoxyquinolin-6-yl)(1-methyl-1H-1,2,3-triazol-5-yl)methanol] |  |  | 1500 | 
5 | COc1nc2ccc(C(O)c3cnc(C)n3C)cc2c(Cl)c1Cc1ccc(F)cc1 (single isomer, unassigned) [Example 8b] | > 6000 | 180 |  | 31
